Reference: ChEMBL document CHEMBL6109084 (Eur J Med Chem, 2025)
In brackets after ≈: the same amount, converted by molar mass. Activity calls are given as the source filed them. The calls are words filed in the database; no cut-off is given here.

Tests used:
Plasma kallikrein = Plasma kallikrein (Homo sapiens, UniProt P03952); test: Inhibition of PKal (unknown origin) using H-D-Pro-Phe-Arg-pNA.2HCl as substrate incubated for 30 mins followed by substrate addition and measured after 60 mins by microplate reader analysis
Plasma kallikrein, sequence (P03952 20-390 limits assumed): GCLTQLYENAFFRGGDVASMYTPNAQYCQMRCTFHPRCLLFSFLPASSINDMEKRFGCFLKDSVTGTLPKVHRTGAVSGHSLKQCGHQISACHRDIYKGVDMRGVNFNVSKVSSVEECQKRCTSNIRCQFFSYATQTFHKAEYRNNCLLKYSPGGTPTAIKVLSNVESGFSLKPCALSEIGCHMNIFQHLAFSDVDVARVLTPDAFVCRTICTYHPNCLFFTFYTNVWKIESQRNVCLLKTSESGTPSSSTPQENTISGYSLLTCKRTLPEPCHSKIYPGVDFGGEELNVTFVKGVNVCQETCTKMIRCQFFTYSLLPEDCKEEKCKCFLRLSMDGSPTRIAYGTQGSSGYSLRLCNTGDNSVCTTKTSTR
Plasma kallikrein, sequence (P03952 391-638 limits assumed): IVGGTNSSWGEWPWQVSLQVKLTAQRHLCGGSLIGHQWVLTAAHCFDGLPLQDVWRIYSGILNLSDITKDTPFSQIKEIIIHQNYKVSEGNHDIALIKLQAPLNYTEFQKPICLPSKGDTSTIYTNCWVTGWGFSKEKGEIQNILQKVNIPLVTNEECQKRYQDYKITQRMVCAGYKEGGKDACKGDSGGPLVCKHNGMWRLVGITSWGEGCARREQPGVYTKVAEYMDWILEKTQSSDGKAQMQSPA

[1] = Selectivity index, ratio of IC50 for inhibition of chymotrypsin (unknown origin) using N-Suc-Ala-Ala-Pro-Phe-pNA as substrate to IC50 for inhibition of human FXIa using p-Glu-Pro-Arg-pNA.HCl as substrate
[2] = Acute toxicity in C57BL/6J mouse assessed as effect on lung weight at 60 to 100 mg/kg, po measured after 24 hrs; assay type: organism-based; details: in vivo, dose 60-100 mg/kg
[3] = Acute toxicity in C57BL/6J mouse assessed as effect on serum AST level at 60 to 100 mg/kg, po administered as single dose for 14 days; assay type: organism-based; details: in vivo, 336 h, dose 60-100 mg/kg, time 14 day
Plasma [4] = test: Anticoagulant activity in mouse plasma assessed as prolongation of activated partial thromboplastin time incubated for 3 mins by aPTT reagent based automated coagulometric analysis; assay type: functional; details: 0.05 h
[5] = Acute toxicity in C57BL/6J mouse assessed as anaphylaxis response at 60 to 100 mg/kg, po administered as single dose for 14 days; assay type: organism-based; details: in vivo, 336 h, dose 60-100 mg/kg, time 14 day
Chymotrypsin = Chymotrypsin (Homo sapiens, UniProt Q99895+P17538+P40313+Q6GPI1); test: Inhibition of chymotrypsin (unknown origin) using N-Suc-Ala-Ala-Pro-Phe-pNA as substrate incubated for 30 mins followed by substrate addition and measured after 60 mins by microplate reader analysis; assay type: protein assay
[6] = Selectivity index, ratio of IC50 for inhibition of trypsin (unknown origin) using Bz-Ile-Glu(gamma-OR)-Gly-Arg-pNA.HCl as substrate to IC50 for inhibition of human FXIa using p-Glu-Pro-Arg-pNA.HCl as substrate
Oryctolagus cuniculus [7] = test: Antithrombotic activity in FeCl3-induced carotid arterial thrombosis male New Zealand white rabbits model assessed as reduction in dry thrombus weight at 2 mg/kg, iv preincubated for 30 mins followed by FeCl3 application for 5 and measured after 45 mins relative to control; assay type: functional; design: scale not given: the % may be the effect or the level left; details: time 80 min, 1.333 h
[8] = Acute toxicity in C57BL/6J mouse assessed as effect on heart weight at 60 to 100 mg/kg, po measured after 24 hrs; assay type: organism-based; details: in vivo, dose 60-100 mg/kg
Plasma [9] = test: Anticoagulant activity in citrated human plasma assessed as prolongation of activated partial thromboplastin time incubated for 3 mins by aPTT reagent based automated coagulometric analysis; assay type: functional
[10] = Selectivity index, ratio of IC50 for inhibition of thrombin (unknown origin) using H-D-Phe-Pip-Arg-pNA.2HCl as substrate to IC50 for inhibition of human FXIa using p-Glu-Pro-Arg-pNA.HCl as substrate
[11] = Acute toxicity in C57BL/6J mouse assessed as effect on plasma ALP level at 60 to 100 mg/kg, po measured after 24 hrs; assay type: organism-based; details: in vivo, dose 60-100 mg/kg
[12] = Acute toxicity in C57BL/6J mouse assessed as pathological changes in liver at 60 to 100 mg/kg, po administered as single dose for 14 days by H and E staining based analysis; assay type: organism-based; details: in vivo, 336 h, dose 60-100 mg/kg, time 14 day
Mus musculus [13] = test: Antithrombotic activity in FeCl3-induced carotid arterial thrombosis C57BL/6J mouse model assessed as increase in peak velocity at 10 mg/kg, po measured after 2 to 4 hrs; assay type: functional, organism-based; details: time 2-4 hrs
Mus musculus [14] = test: Antithrombotic activity in po dosed FeCl3-induced carotid arterial thrombosis C57BL/6J mouse model assessed as increase in mean blood flow velocity measured after 0.5 hrs; assay type: functional, organism-based; details: dose 5-30 mg/kg
[15] = Selectivity index, ratio of IC50 for inhibition of FXIIa (unknown origin) using H-D-ProPhe-Arg-pNA.2HCl as substrate to IC50 for inhibition of human FXIa using p-Glu-Pro-Arg-pNA.HCl as substrate
[16] = Acute toxicity in C57BL/6J mouse assessed as pathological changes in lung at 60 to 100 mg/kg, po administered as single dose for 14 days by H and E staining based analysis; assay type: organism-based; details: in vivo, 336 h, dose 60-100 mg/kg, time 14 day
Mus musculus [17] = test: In vivo inhibition of FXIa in FeCl3-induced carotid arterial thrombosis C57BL/6J mouse model assessed as decrease in FXIa level in plasma at 5 to 30 mg/kg, po measured after 0.5 hrs by ELISA; assay type: functional, organism-based; details: dose 5-30 mg/kg
[18] = Apparent permeability in MDCK-MDR1 cells; assay type: ADME, cell-based, Canis lupus familiaris; details: dog
[19] = Selectivity index, ratio of IC50 for inhibition of FXa (unknown origin) using Z-D-Arg-Gly-Arg-pNA.2HCl as substrate to IC50 for inhibition of human FXIa using p-Glu-Pro-Arg-pNA.HCl as substrate
[20] = Acute toxicity in C57BL/6J mouse assessed as effect on serum alanine transaminase level at 60 to 100 mg/kg, po measured after 24 hrs; assay type: organism-based; details: in vivo, dose 60-100 mg/kg
[21] = Acute toxicity in C57BL/6J mouse assessed as weight loss at 60 to 100 mg/kg, po administered as single dose for 14 days; assay type: organism-based; details: in vivo, 336 h, dose 60-100 mg/kg, time 14 day
physchem = details: aqueous medium, pH 7.4
Description: Aqueous solubility of the compound in DMSO at pH 7.4 incubated for 12 hrs by turbidimetric based UV spectrophotometric analysis

Oryctolagus cuniculus [22] = test: Antithrombotic activity in FeCl3-induced carotid arterial thrombosis male New Zealand white rabbits model assessed as reduction in wet thrombus weight at 2 mg/kg, iv preincubated for 30 mins followed by FeCl3 application for 5 mins and measured after 30 mins relative to control; assay type: functional; design: scale not given: the % may be the effect or the level left; details: time 65 min, 1.083 h
[23] = Toxicity in C57BL/6J mouse assessed as prolongation of bleeding time at 30 to 60 mg/kg, IG measured after 30 mins by tail bleeding assay; assay type: organism-based; details: in vivo, po, 0.5 h, dose 30-60 mg/kg
Coagulation factor X = Coagulation factor X (Homo sapiens, UniProt P00742); test: Inhibition of FXa (unknown origin) using Z-D-Arg-Gly-Arg-pNA.2HCl as substrate incubated for 30 mins followed by substrate addition and measured after 60 mins by microplate reader analysis
Coagulation factor X, sequence (P00742 41-179 limits assumed): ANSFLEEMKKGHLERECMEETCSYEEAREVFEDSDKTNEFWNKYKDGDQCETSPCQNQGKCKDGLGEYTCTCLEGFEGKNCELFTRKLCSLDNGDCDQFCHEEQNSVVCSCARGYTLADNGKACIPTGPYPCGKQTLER
Coagulation factor X, sequence (P00742 235-488 limits assumed): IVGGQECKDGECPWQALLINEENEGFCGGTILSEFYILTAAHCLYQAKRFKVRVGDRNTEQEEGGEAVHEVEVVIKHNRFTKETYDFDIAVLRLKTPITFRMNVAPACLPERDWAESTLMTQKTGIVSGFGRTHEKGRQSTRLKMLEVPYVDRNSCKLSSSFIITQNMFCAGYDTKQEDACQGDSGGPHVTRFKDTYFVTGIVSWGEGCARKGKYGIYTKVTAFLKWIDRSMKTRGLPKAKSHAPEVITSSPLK

[24] = Acute toxicity in C57BL/6J mouse assessed as pathological changes in kidney at 60 to 100 mg/kg, po administered as single dose for 14 days by H and E staining based analysis; assay type: organism-based; details: in vivo, 336 h, dose 60-100 mg/kg, time 14 day
Plasma [25] = test: Anticoagulant activity in citrated human plasma assessed as prolongation of activated partial thromboplastin time at 1 uM incubated for 3 mins by aPTT reagent based automated coagulometric analysis relative to control; assay type: functional; details: 0.05 h
Plasminogen = Plasminogen (Homo sapiens, UniProt P00747); test: Inhibition of plasmin (unknown origin) using PyroGlu-Phe-Lys-pNA.HCl as substrate incubated for 30 mins followed by substrate addition and measured after 60 mins by microplate reader analysis
Plasminogen, sequence (P00747 97-580 limits assumed): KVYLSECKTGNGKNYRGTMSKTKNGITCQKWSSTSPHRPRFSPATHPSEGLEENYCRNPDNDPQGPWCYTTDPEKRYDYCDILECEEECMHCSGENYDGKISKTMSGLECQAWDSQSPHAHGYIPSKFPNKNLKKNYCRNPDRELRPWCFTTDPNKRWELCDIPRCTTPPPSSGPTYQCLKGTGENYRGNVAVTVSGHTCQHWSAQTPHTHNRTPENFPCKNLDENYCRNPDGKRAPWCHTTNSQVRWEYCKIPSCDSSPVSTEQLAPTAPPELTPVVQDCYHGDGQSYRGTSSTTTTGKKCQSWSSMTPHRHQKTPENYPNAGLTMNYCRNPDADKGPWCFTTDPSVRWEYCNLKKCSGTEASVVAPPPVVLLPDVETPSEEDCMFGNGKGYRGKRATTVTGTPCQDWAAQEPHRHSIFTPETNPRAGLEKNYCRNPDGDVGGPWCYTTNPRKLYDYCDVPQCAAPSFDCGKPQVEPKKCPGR
Plasminogen, sequence (P00747 581-810 limits assumed): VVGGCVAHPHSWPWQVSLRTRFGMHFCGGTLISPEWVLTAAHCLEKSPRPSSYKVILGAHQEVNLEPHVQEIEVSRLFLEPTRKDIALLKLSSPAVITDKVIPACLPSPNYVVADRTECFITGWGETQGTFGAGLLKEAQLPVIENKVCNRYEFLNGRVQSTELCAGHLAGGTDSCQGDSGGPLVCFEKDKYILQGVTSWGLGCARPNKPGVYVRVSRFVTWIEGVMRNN

[26] = biological target: Tissue-type plasminogen activator (Homo sapiens, UniProt P00750); test: Inhibition of tPA (unknown origin) using H-D-Ile-Pro-Arg-pNA-2HCl as substrate incubated for 30 mins followed by substrate addition and measured after 60 mins by microplate reader analysis
Tissue-type plasminogen activator, sequence (P00750 whole entry): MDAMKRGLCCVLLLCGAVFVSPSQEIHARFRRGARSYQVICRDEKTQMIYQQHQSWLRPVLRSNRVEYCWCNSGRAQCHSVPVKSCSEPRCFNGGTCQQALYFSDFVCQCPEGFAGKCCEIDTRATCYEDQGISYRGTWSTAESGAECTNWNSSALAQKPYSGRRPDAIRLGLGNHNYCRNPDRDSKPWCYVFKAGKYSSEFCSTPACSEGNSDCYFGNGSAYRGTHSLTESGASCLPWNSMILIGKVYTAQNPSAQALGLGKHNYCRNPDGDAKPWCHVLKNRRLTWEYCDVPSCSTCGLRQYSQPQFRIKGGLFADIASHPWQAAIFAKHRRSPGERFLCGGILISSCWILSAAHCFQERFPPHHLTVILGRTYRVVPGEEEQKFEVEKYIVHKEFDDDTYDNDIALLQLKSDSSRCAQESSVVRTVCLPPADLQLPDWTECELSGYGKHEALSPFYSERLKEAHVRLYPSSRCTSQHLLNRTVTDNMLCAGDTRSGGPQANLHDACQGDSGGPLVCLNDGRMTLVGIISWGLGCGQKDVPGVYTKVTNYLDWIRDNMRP

COc1cn(Cc2cc(-c3ccc(N)nc3F)ccn2)c(=O)cc1-c1cc(Cl)ccc1-n1cnnn1
IC50 (Plasma kallikrein): 222 nM
Ratio IC50 [1]: > 1000
Activity [2]: Non-toxic
Activity [3]: Non-toxic
EC1.5 (Plasma [4]): 1.6 µM
Activity [5]: Non-toxic
IC50 (Chymotrypsin): > 1000 nM
Ratio IC50 [6]: > 1000
Activity (Oryctolagus cuniculus [7]): >50%
Activity [8]: Non-toxic
Activity (Plasma [9]): Dose-dependent-effect
EC1.5 (Plasma [9]; 0.05 h): 0.43 µM
Ratio IC50 [10]: > 1000
Activity [11]: Non-toxic
Activity [12]: Non-toxic
Activity (Mus musculus [13]): Active; Pronounced Increase Observed Compared To Compound F
Activity (Mus musculus [14]): Dose-dependent-effect
Ratio IC50 [15]: > 1000
Activity [16]: Non-toxic
inhibition (Mus musculus [17]): Active
Papp [18]: 0.5 ×10⁻⁶ cm/s
Ratio IC50 [19]: > 1000
Activity [20]: Non-toxic
Activity [21]: Non-toxic
solubility kinetic at 12 h (physchem): 122 µg/mL (≈ 242 µM)
Activity (Oryctolagus cuniculus [22]): >50%
Activity [23]: Non-toxic
IC50 (Coagulation factor X): > 1000 nM
Activity [24]: Non-toxic
Activity (Plasma [25]): 247.3%
IC50 (Plasminogen): > 1000 nM
IC50 [26]: > 1000 nM
